In patent publication US11780840B2 (Incyte Corporation, priority 2020, dated 2023):

What was measured:
[1] = target: T1, catalytic domain (JH1, amino acids 826-1132) of human JAK2 (Homo sapiens, UniProt O60674); assay: JAK2 LanthaScreen JH1 Binding Assay; conditions: JAK2 JH1 (1.5 nM), 50 nM fluorescent JAK2-JH1 tracer, 2 hours at 25° C.; read-out: JH1 BIND
T1 construct: catalytic domain (JH1, amino acids 826-1132) of human JAK2; FLAG (N); purchased Carna Biosciences 08-445-20N; host or cells: baculovirus expression system
Procedure, shortened: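 TR-FRET tracer-displacement format: compound IC50 from four-parameter curves after 2 h at 25° C. Reaction held 1.5 nM biotinylated, FLAG-tagged JH1 (aa 826-1132), 50 nM tracer, 0.5 nM Streptavidin-Tb, pH 7.5 Tris buffer; 2 mM ATP set nonspecific background.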

[2] = target: T2, pseudo-kinase domain (JH2, amino-acids 536-812 with 3 surface mutations W659A, W777A, F794H) of human Wild Type JAK2 (Homo sapiens, UniProt O60674, F794H/W659A/W777A); assay: JAK2 LanthaScreen JH2-WT Binding Assay; conditions: JAK2 JH2-WT (0.145 nM), 50 nM Fluorescent JAK2-JH2 Tracer, 1 hour at 25° C.; read-out: JH2 BIND WT
T2 construct: pseudo-kinase domain (JH2, amino-acids 536-812 with 3 surface mutations W659A, W777A, F794H); His (C); Avi (biotinylated) (C); purchased BPS Bioscience 79463; host or cells: baculovirus expression system
Procedure, shortened: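 TR-FRET tracer displacement: IC50 from four-parameter dose-response fit. Reaction: compound, 0.145 nM biotinylated JH2 protein from baculovirus, 0.25 nM streptavidin-Tb and 50 nM tracer, 1 h at 25° C, 50 mM Tris pH 7.5 buffer. 2 mM ATP gave non-specific binding.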

[3] = target: T3, pseudo-kinase domain (JH2, amino-acids 536-812 with 3 surface mutations W659A, W777A, F794H) of human V617F mutant JAK2 (Homo sapiens, UniProt O60674, F794H/V617F/W659A/W777A); assay: JAK2 LanthaScreen JH2-V617F Binding Assay; conditions: JAK2 JH2-V617F (0.26 nM), 50 nM Fluorescent JAK2-JH2 Tracer, 1 hour at 25° C.; read-out: JH2 BIND V617F
T3 construct: pseudo-kinase domain (JH2, amino-acids 536-812 with 3 surface mutations W659A, W777A, F794H); His (C); Avi (biotinylated) (C); purchased BPS Bioscience 79498; host or cells: baculovirus expression system
Procedure, shortened: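 This is a TR-FRET tracer-displacement format with a 1 h, 25 °C incubation. It combined 0.26 nM baculovirus-expressed biotinylated JH2-V617F, 50 nM fluorescent JAK2-JH2 tracer and 0.25 nM streptavidin-Tb cryptate in 50 mM Tris pH 7.5, 10 mM MgCl2, 5 mM DTT. Background came from 2 mM ATP, and IC50 values were from four-parameter dose-response fits.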

T2 sequence (O60674 536-812 W659A/W777A/F794H): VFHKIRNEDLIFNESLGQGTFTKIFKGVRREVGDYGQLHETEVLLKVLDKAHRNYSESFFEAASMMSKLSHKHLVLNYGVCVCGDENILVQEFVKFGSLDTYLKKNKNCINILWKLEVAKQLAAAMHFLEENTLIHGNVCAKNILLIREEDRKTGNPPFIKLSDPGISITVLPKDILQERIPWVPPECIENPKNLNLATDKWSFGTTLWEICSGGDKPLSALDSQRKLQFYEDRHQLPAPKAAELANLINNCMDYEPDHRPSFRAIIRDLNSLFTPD
T1 sequence (O60674 826-1132): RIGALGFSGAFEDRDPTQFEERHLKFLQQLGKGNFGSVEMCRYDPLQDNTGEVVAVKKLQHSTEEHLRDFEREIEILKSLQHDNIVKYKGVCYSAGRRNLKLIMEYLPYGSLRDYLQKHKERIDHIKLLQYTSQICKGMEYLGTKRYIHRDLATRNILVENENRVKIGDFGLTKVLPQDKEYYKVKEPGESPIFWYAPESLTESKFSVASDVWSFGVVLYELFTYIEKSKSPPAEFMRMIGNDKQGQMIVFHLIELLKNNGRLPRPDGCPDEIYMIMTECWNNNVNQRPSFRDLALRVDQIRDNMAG
T3 sequence (O60674 536-812 V617F/W659A/W777A/F794H): as the sequence (O60674 536-812 W659A/W777A/F794H) above, with V82F counted along it

SMILES | IC50 [1] | IC50 [2] | IC50 [3]
Cn1ncc2cc(-c3c(-c4ccc(Oc5cccnc5)nc4)[nH]c4ncc5c(c34)n(C3CCCC3)c(=O)n5C)ccc21 [Example 67, 1-Cyclopentyl-3-methyl-8-(1-methyl-1H-indazol-5-yl)-7-(6-(pyridin-3-yloxy)pyridin-3-yl)-3,6-dihydroimidazo[4,5-d]pyrrolo[2,3-b]pyridin-2(1H)-one] | > 1000 nM | 10 to 100 nM | 10 to 100 nM
Cn1ncc2cc(-c3c(C4CC4)[nH]c4ncc5c(c34)n(C3CCCC3)c(=O)n5C)ccc21 [Example 68, 1-Cyclopentyl-7-cyclopropyl-3-methyl-8-(1-methyl-1H-indazol-5-yl)-3,6-dihydroimidazo[4,5-d]pyrrolo[2,3-b]pyridin-2(1H)-one] | 500 to 1000 nM | ≤ 10 nM | ≤ 10 nM
Cn1ncc2cc(-c3c(C4=CCCCC4)[nH]c4ncc5c(c34)n(C3CCCC3)c(=O)n5C)ccc21 [Example 69, 7-(Cyclohex-1-en-1-yl)-1-cyclopentyl-3-methyl-8-(1-methyl-1H-indazol-5-yl)-3,6-dihydroimidazo[4,5-d]pyrrolo[2,3-b]pyridin-2(1H)-one] | > 1000 nM | ≤ 10 nM | ≤ 10 nM
Cn1ncc2cc(-c3c(CCO)[nH]c4ncc5c(c34)n(C3CCCC3)c(=O)n5C)ccc21 [Example 70, 1-Cyclopentyl-7-(2-hydroxyethyl)-3-methyl-8-(1-methyl-1H-indazol-5-yl)-3,6-dihydroimidazo[4,5-d]pyrrolo[2,3-b]pyridin-2(1H)-one] | > 1000 nM | 100 to 500 nM | 100 to 500 nM
Cn1c(=O)n(C2CCCC2)c2c3c(-c4cc5cnccc5s4)c(C4CC4)[nH]c3ncc21 [Example 71, 1-Cyclopentyl-7-cyclopropyl-3-methyl-8-(thieno[3,2-c]pyridin-2-yl)-3,6-dihydroimidazo[4,5-d]pyrrolo[2,3-b]pyridin-2(1H)-one] | 500 to 1000 nM | ≤ 10 nM | 10 to 100 nM
Cn1ncc2cc(-c3c(C4CC4C#N)[nH]c4ncc5c(c34)n(C3CCCC3)c(=O)n5C)ccc21 (stereo not drawn) [Example 72, 2-(1-Cyclopentyl-3-methyl-8-(1-methyl-1H-indazol-5-yl)-2-oxo-1,2,3,6-tetrahydroimidazo [4,5-d]pyrrolo[2,3-b]pyridin-7-yl)cyclopropane-1-carbonitrile] | 500 to 1000 nM | ≤ 10 nM | 10 to 100 nM
COCC(=O)NC1CCC(n2c(=O)n(C)c3cnc4[nH]c(-c5cnn(CC(C)(C)O)c5)c(-c5ccc6c(cnn6C)c5)c4c32)CC1 (stereo not drawn) [Example 73, N-(4-(7-(1-(2-Hydroxy-2-methylpropyl)-1H-pyrazol-4-yl)-3-methyl-8-(1-methyl-1H-indazol-5-yl)-2-oxo-3,6-dihydroimidazo[4,5-d]pyrrolo[2,3-b]pyridin-1(2H)-yl)cyclohexyl)-2-methoxyacetamide] | > 1000 nM | ≤ 10 nM | ≤ 10 nM
CC(=O)NC1CCC(n2c(=O)n(C)c3cnc4[nH]c(-c5cnn(CC(C)(C)O)c5)c(-c5ccc6c(cnn6C)c5)c4c32)CC1 (stereo not drawn) [Example 74, N-(4-(7-(1-(2-Hydroxy-2-methylpropyl)-1H-pyrazol-4-yl)-3-methyl-8-(1-methyl-1H-indazol-5-yl)-2-oxo-3,6-dihydroimidazo[4,5-d]pyrrolo[2,3-b]pyridin-1(2H)-yl)cyclohexyl) acetamide] | 500 to 1000 nM | ≤ 10 nM | ≤ 10 nM
CC(C)n1c(=O)n(C)c2cnc3[nH]c(-c4cnn(CC(C)(C)O)c4)c(-c4cc5cnccc5s4)c3c21 [Example 75, 7-(1-(2-Hydroxy-2-methylpropyl)-1H-pyrazol-4-yl)-1-isopropyl-3-methyl-8-(thieno[3,2-c]pyridin-2-yl)-3,6-dihydroimidazo[4,5-d]pyrrolo[2,3-b]pyridin-2(1H)-one] | 500 to 1000 nM | ≤ 10 nM | ≤ 10 nM
